This is an account of results in patent publication US20030054029A1, “IIB/IIIA ANTAGONISTS CO-ADMINISTERED WITH ASPIRIN” (priority 1997, published 2003).

Where “and” joins values, the source holds several entries; their conditions need not be identical. Identical values can stand only once.

In data set [1] the test system is occlusive thrombus in left circumflex coronary artery (LCCA). The data set can be described thus: Anesthetized canine model of coronary thrombosis (anodal current stimulation of the LCCA). Type of data set: in vivo, dog. Here is the method: Sixty-six mongrel dogs of either sex weighing between 14 and 26 kg were anesthetized by intravenous administration of pentobarbital sodium solution (30 mg/kg). A supplemental dose of the anesthetic (65 to 130 mg) was administered as required. The dogs were endotracheally intubated and placed on a respirator (Biological Research Apparatus, Comerio-Varese, Italy) with the stroke volume adjusted to 20 ml/kg and a frequency of 12 breaths/minute. Peripheral arterial blood pressure was monitored with a pressure transducer (Micron Instruments, Simi Valley, Calif.) connected to a catheter placed in the right femoral artery. A catheter was inserted into the right femoral vein for withdrawing blood samples and another was inserted into the left jugular vein for administering intravenous fluids. A left thoracotomy was performed in the fifth intercostal space and the heart was suspended in a pericardial cradle. A 2 to 3-cm segment of the left circumflex coronary artery (LCCA) was isolated distal to the first diagonal branch. The small intervening coronary branches over the isolated segment were ligated. The artery was instrumented from proximal to distal with an ultrasonic flow probe, a stimulation electrode, and a Goldblatt clamp. The flow probe was connected to a Doppler flow meter (Crystal Biotech, Hopkinton, Mass.) in order to monitor the mean and the phasic LCCA blood flow velocities. The stimulation electrode and its placement in the LCCA and the methodology to induce an occlusive coronary thrombus are described in detail in Mickelson et al. Circulation, 1990; 81:617-627; Shebuski et al., Circulation, 1990; 82:169-177; and Tschopp et al., Coronary Artery Des., 1993; 4:809-817. Briefly, the needle tip of the electrode was inserted into the LCCA, ensuring its contact with the intraluminal surface of the vessel just under the Goldblatt clamp. The clamp was adjusted to reduce the peak reactive hyperemia following a 10-second period of total occlusion, without affecting the baseline mean LCCA blood flow velocity. Continuous recordings of blood pressure and LCCA blood flow velocity (mean and phasic) were obtained on a multichannel recorder (Gould Inc., Cleveland, Ohio).
Approximately 30 minutes after the preparation of the dogs, the study was continued by the administration of one of the treatments presented in Table 2.
The 0.6×SCa, 0.5×SCa and 0.4×SCa doses in Table 2 represent the reduced doses of the highest dose of SCa tested. Each dog was utilized only once. At 30 minutes, the stimulation electrode was then connected in series with a 12 K Ohms-112 K Ohms variable resistor to the positive terminal of a 9-V battery. The electrical circuit was completed by securing a needle electrode into a subcutaneous site and to the negative terminal of the battery. The anodal current delivered to the tip of the stimulation electrode was monitored and maintained at 250 μA. The number and the frequency of cyclic flow variations (CFV) that preceded the formation of an occlusive thrombus were recorded. CFV were observed as spontaneous shifts in mean and phasic LCCA blood flow velocity, with the sudden return of these variables to baseline. Proper positioning of the electrode in the LCCA was confirmed by visual inspection at the end of the experiment. Each experiment lasted for 180 minutes of anodal current unless the dog died after an occlusive thrombus was formed.

Data set [2] has as its system Dog PRP platelet aggregation. The data set can be described thus: In-Vitro Platelet Aggregation in PRP (ADP-induced). The data set is classed as cell-based. Particulars: Canis lupus familiaris; ADP 50 um final concentration, dog platelet-rich plasma. Here is the method: Healthy male or female dogs were fasted for 8 hours prior to drawing blood; then 30 ml whole blood was collected using a butterfly needle and 30 cc plastic syringe with 3 ml of 0.129 M buffered sodium citrate (3.8%). The syringe was rotated carefully as blood was drawn to mix the citrate. Platelet-rich plasma (PRP) was prepared by centrifugation at 975×g for 3.17 minutes at room temperature allowing the centrifuge to coast to a stop without braking. The PRP was removed from the blood with a plastic pipette and placed in a plastic capped, 50 mL Corning conical sterile centrifuge tube which was held at room temperature. Platelet poor plasma (PPP) was prepared by centrifuging the remaining blood at 2000×g for 15 minutes at room temperature allowing the centrifuge to coast to a stop without braking. The PRP was adjusted with PPP to a count of 2-3×10^8 platelets per mL. 400 uL of the PRP preparation and 50 uL of the compounds solution to be tested or saline were preincubated for 1 minute at 37° C. in an aggregometer (BioData, Horsham, Pa.). 50 uL of adenosine 5′ diphosphate (ADP) (50 um final concentration) was added to the cuvettes and the aggregation was monitored for 1 minute. All compounds are tested in duplicate. Results are calculated as follows: Percent of control=[(maximal OD minus initial OD of compound) divided by (maximal OD minus initial OD of control saline)]×100. […]

Data set [3] can be described thus: Bioassay for SCa plasma levels. The data set is classed as in vivo. Particulars: steady state, dog plasma, mean ± SEM. Here is the method: SCa plasma levels were determined from the blood samples used for platelet aggregation. Plasma levels of SCa were measured using a modification of a bioassay method previously described in Salyers et al., Throm. Res., 1994, 75:409-417. The bioassay used plasma from treated dogs as the source of inhibitor to be tested in vitro against normal (naive) platelets from donor dogs. Briefly, PRP from non-treated dogs was added to wells containing plasma samples from treated dogs in a 96 well microtiter plate. ADP (20 μM) was added to the platelet suspension in each well to induce aggregation. Optical density at 405 nanometers was measured on all wells simultaneously in a platereader (Thermomax microplate reader, Molecular Devices, Menlo Park, Calif.). The results were quantified by comparison to a standard inhibition curve prepared in plasma using known amounts of SCa.

Data set [4] concerns collagen-induced platelet aggregation. In words: Ex vivo collagen-induced platelet aggregation in PRP of treated dogs. To be noted: mean±SEM. Details: species or system dog. Here is the method:
Peripheral venous blood was collected into citrated Vacutainer tubes (containing 0.3 ml of 3.8% sodium citrate solution) and platelet-rich plasma (PRP) was obtained by centrifugation (model Technospin R, Sorvall Instruments, DuPont, Wilmington, Del.) the blood at 266×g for 6 minutes at 24° C. Platelet-poor plasma (PPP) was obtained by further centrifugation at 2000×g for 10 minutes at 24° C. Samples were assayed on an aggregometer (model PAP-4, Bio/Data Corporation, Hatboro, Pa.) with PPP as the blank. The aggregations were performed by adding 50 μl of collagen ([…] final concentration) to 450 μl of PRP and measuring aggregation for 3 minutes. Blood samples used in platelet aggregation were collected at the following time periods: before treatment administration (baseline), immediately before anodal stimulation (at 30 minutes), at 60 minutes, then at 1-hour intervals to the end of experimentation. The blood samples at 60, 120 and 180 minutes were averaged (since the three blood samples yielded similar data) to obtain the steady-state platelet inhibition value for all comparisons except for saline and heparin (since no 120-minute sample was taken, 60 and 180 minute samples were used). Results are expressed as percent inhibition and represent steady-state conditions.

The mark [5] stands for this setting: no SCa, ASA 2.8 mg/kg iv bolus, heparin 200 units/kg bolus then 1000 units/hour.
Where [6] appears, read: no SCa, ASA 2.8 mg/kg iv bolus, heparin 200 units/kg bolus then 1000 units/hour, mean±SEM, n=6.
Setting [7] is: no SCa, ASA 2.8 mg/kg iv bolus, heparin 200 units/kg bolus then 1000 units/hourly, mean ± SEM, n=6/group.
[8] abbreviates: no SCa, ASA 2.8 mg/kg iv bolus, heparin 200 units/kg bolus then 1000 units/hourly, n=6/group.
The mark [9] stands for this setting: 0.6 × SCa (0.52//0.23 μg/kg/min iv).
Setting [10] is: 1 × SCa (0.87//0.39 μg/kg/min iv).
Where [11] appears, read: 0.6 × SCa (0.52//0.23 μg/kg/min iv), mean±SEM, n=6.

On to `CC(=O)Oc1ccccc1C(=O)O` [ASA, acetylsalicyclic acid, reference compound], for which the “occurrence of thrombosis (occlusive thrombus) in dogs” value in data set [1] (no SCa, ASA 2.8 mg/kg iv bolus, 180 minutes of anodal current, n=6) is on record as “did occur before the completion of the 180 minutes of current in all of the dogs”. Also, the “effectiveness in the thrombosis model” value in data set [1] (setting [5]) was “not effective”. The “time to zero flow” value in data set [1] (setting [6]) was 64 ± 7 min. Besides, in data set [1] (setting [7]), the “Mean CFV/Minute (×100)” value is on record as 6 ± 2 CFV/Minute (×100). The “Number of Dogs with CFV” value in data set [1] (setting [8]) is reported as 6/6.

A word on the IC50: it is the midpoint of a concentration-inhibition curve. A low value points to higher potency. `C#C[C@H](CC(=O)OCC)NC(=O)CCC(=O)Nc1ccc(C(=N)N)cc1` [Example 1, Ethyl 3S-[[4-[[4-(aminoiminomethyl)phenyl]-amino]-1,4-dioxobutyl]amino]-4-pentynoate] returned an IC50 in data set [2] of 4600 nM.

`C#C[C@H](CC(=O)O)NC(=O)CCC(=O)Nc1ccc(C(=N)N)cc1` [Example 2]: the results for the “Plasma Level of SCa” value in data set [3] (0.5 × SCa (0.425//0.20 μg/kg/min iv)), in data set [3] (setting [9]) and in data set [3] (setting [10]) were 35 ± 8 ng/mL, 48 ± 7 ng/mL and 57 ± 4 ng/mL, respectively. Further, the “dogs with occlusive thrombus / LCCA thrombosis” value in data set [1] (0.5 × SCa (0.425//0.20 μg/kg/min iv) alone or with ASA and/or heparin, 180 minutes of anodal current, n=6/group) was 4 of 6. Besides, the “Mean CFV/Minute (×100)” value was 5 ± 1 CFV/Minute (×100) in data set [1] (0.5 × SCa (0.425//0.20 μg/kg/min iv) alone or with ASA and/or heparin, mean ± SEM, n=6/group); 3 ± 1 CFV/Minute (×100) in data set [1] (setting [11]); 0.7 ± 0.7 CFV/Minute (×100) in data set [1] (1 × SCa (0.87//0.39 μg/kg/min iv), during anodal stimulation of the LCCA, mean ± SEM, n=6). Also, the “Number of Dogs with CFV” value in data set [1] (0.5 × SCa (0.425//0.20 μg/kg/min iv) alone or with ASA and/or heparin, n=6/group) was 6/6; in data set [1] (0.6 × SCa (0.52//0.23 μg/kg/min iv), n=6), 4/6; in data set [1] (1 × SCa (0.87//0.39 μg/kg/min iv), n=6, listed as SCa), 1 of 6 and 1/6. Besides, the “time to zero flow” value in data set [1] (0.5 × SCa (0.425//0.20 μg/kg/min iv), mean±SEM, n=6) stood at 130 ± 22 min; in data set [1] (setting [11]) it was 158 ± 15 min; in data set [1] (1 × SCa (0.87//0.39 μg/kg/min iv, loading 15 min // maintenance), 180 min = end of protocol with no occlusion, mean±SEM, n=6), 180 ± 0 min. Moreover, in data set [1] (1 × SCa (0.87//0.39 μg/kg/min iv), 180 minutes of anodal current, n=6), the “occurrence of thrombosis (occlusive thrombus) in dogs” value was “did not occur in any of the dogs”. The compound further showed a half-maximal inhibitory concentration (IC50) in data set [2] of 70 nM. In addition, the “steady-state inhibition of platelet aggregation (Percent Inhibition)” value in data set [4] (0.5 × SCa (0.425//0.20 μg/kg/min iv) alone or with ASA 2.8 mg/kg bolus and/or heparin 200 units/kg + 1000 units/hour) turned out to be 70±4%; in data set [4] (setting [9]), 83±3%; in data set [4] (setting [10]) it was 92±5%.

On to Heparin [reference compound], for which the “effectiveness in the thrombosis model” value in data set [1] (setting [5]) was “not effective”. Also, the “time to zero flow” value in data set [1] (setting [6]) is 114 ± 16 min. Besides, the “Mean CFV/Minute (×100)” value in data set [1] (setting [7]) was 5 ± 1 CFV/Minute (×100). The “Number of Dogs with CFV” value in data set [1] (setting [8]) is 6/6. Besides, the “steady-state inhibition of platelet aggregation” value in data set [4] (setting [5]) was determined as 13±2%.
